The results in this text go back to patent US10030016B2 (Sunesis Pharmaceuticals, Inc., priority 2009, dated 2018).

One test has as its target PDK1 (Homo sapiens (Human), UniProt O15530). Description: PDK1 kinase assay (coupled PDK1/AKT/FAM-crosstide assay, IMAP fluorescence polarization). It counts as biochemical. The gist of the method: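 Coupled cascade: 0.75 nM PDK1 (51-359) → 10 nM AKT2 (140-467-PIFtide) → 100 nM FAM-crosstide. ATP 40 μM, 25° C, 30 min. IMAP FP (ex 485/em 530), 2 h binding. ΔmP vs conc, 4-param fit.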
(In general: Fluorescence polarisation rises when a labelled molecule tumbles more slowly, as on binding a larger partner.)

The test system of test [1] is phospho-akt (Thr308) in PC-3 cells. Put plainly: Inhibition of phospho-akt (Thr308) in PC-3 cells, MSD phospho-akt 308 ELISA kit. It counts as cell-based. As to conditions: 2 hours, no serum, read-out: EC50. The gist of the method:
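Electrochemiluminescent MSD ELISA of Thr308-phosphorylated Akt after a 2 h serum-free compound exposure of PC-3 cells (15,000/well, plated overnight). Controls: DMSO (high), 5 μM wortmannin (low). Lysate binding overnight at 4 °C; detection antibody 1 h at room temperature.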

[2] abbreviates: Homo sapiens, inhibition of P308 Akt in PC-3 cells using MSD.
Setting [3] is: inhibition of phospo-PDK1 in vitro.
Setting [4] is: Homo sapiens, inhibition of P308 Akt in PC-3 cells, MSD.

Counter-ions that a name gives are not always drawn. Like-named read-outs stand apart in the source and are kept apart here.

For orientation: IC50 means the concentration needed to halve the response being measured. Higher therefore signals a need for much substance. One may read the EC50 as the concentration that produces a half-maximal response.

Chain of PDK1 (O15530 51-359): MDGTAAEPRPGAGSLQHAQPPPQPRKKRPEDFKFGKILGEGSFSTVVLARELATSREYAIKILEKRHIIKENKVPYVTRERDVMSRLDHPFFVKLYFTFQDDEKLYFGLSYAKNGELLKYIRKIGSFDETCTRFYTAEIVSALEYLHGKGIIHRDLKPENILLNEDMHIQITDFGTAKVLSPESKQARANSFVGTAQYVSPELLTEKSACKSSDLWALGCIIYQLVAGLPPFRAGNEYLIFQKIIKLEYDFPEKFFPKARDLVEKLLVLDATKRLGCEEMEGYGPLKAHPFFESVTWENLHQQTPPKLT

With `Nc1n[nH]c2ncc(-c3ccc(CNc4ncc(C(F)(F)F)cc4C(=O)NCc4ccc(Cl)c(F)c4)cc3)cc12` [Example 419, 2-(4-(3-amino-1H-pyrazolo [3,4-b]pyridin-5-yl)benzylamino)-N-(4-chloro-3-fluorobenzyl)-5-(trifluoromethyl)nicotinamide], the IC50 at PDK1 (inhibition of PDK1 in vitro) was below 100 nM. Also, the EC50 in test [1] (setting [2]) was 1000 to 10000 nM.

At PDK1 (setting [3]), `O=C(NCc1ccc(F)c(F)c1)c1cc(C(F)(F)F)cnc1N[C@@H](COc1ccc2[nH]c(=O)[nH]c2c1)c1ccccc1` [Example 16.4, (R)-N-(3,4-difluorobenzyl)-2-(2-(2-oxo-2,3-dihydro-1H-benzo[d]imidazol-5-yloxy)-1-phenylethylamino)-5-(trifluoromethyl)nicotinamide] had a concentration for half-maximal inhibition (IC50) of 1000 to 5000 nM. For the same compound, in test [1] (Homo sapiens, PC-3, 2 h, inhibition of P308 Akt in PC-3 cells, MSD), the EC50 lay within 1000 to 10000 nM.

The compound `C[C@H](NC(=O)c1nc(C#N)cnc1NCc1ccc(-c2cnc(NCCO)cn2)cc1)c1ccc(F)c(F)c1` [Example 230, 6-Cyano-3-{4-[5-(2-hydroxy-ethylamino)-pyrazin-2-yl]-benzylamino}-pyrazine-2-carboxylic acid [(S)-1-(3,4-difluoro-phenyl)-ethyl]-amide] displayed an IC50 against PDK1 (inhibition of PDK1 in vitro) below 100 nM. Moreover, the 50% effective concentration (EC50) in test [1] (setting [2]) fell in the range of 1000 to 10000 nM.

At PDK1 (inhibition of PDK1 in vitro), `C[C@H](NC(=O)c1nc(C#N)cnc1NCc1ccc(-c2cnc(N)cn2)cc1)c1ccc(F)c(F)c1` [Example 376, (S)-3-(4-(5-aminopyrazin-2-yl)benzylamino)-6-cyano-N-(1-(3,4-difluorophenyl)ethyl)pyrazine-2-carboxamide] registered a 50% inhibitory concentration (IC50) below 100 nM. Moreover, in test [1] (setting [2]), the EC50 was below 1000 nM.

Take `Nc1ncnc2ccc(-c3ccc(CNc4ncccc4C(=O)Nc4cccc(F)c4)s3)cc12` [Example 3.46, 2-({[5-(4-aminoquinazolin-6-yl)thiophen-2-yl]methyl}amino)-N-(3-fluorophenyl)pyridine-3-carboxamide (TFA salt)]: on PDK1 (setting [3]), the IC50 was in the range of 100 to 1000 nM. Besides, the concentration giving a half-maximal response (EC50) in test [1] (setting [4]) was in the range of 1000 to 10000 nM.

In the case of `C[C@H](NC(=O)c1cccnc1NCc1ccc(-c2ccc3ncnc(N4CC(CO)C4)c3c2)s1)c1ccc(F)c(F)c1` [Example 4.38], at PDK1 (setting [3]), the 50% inhibitory concentration (IC50) was below 100 nM. Also, the EC50 in test [1] (setting [4]) lay in the range of 1000 to 10000 nM.

On to `C[C@@H](NC(=O)c1nc(C#N)cnc1NCc1ccc(-c2cnc3[nH]nc(N)c3c2)cc1)c1ccc(F)c(F)c1` [Example 417, (R)-3-(4-(3-amino-1H-pyrazolo[3,4-b]pyridin-5-yl)benzylamino)-6-cyano-N-(1-(3,4-difluorophenyl)ethyl) pyrazine-2-carboxamide], for which, at PDK1 (inhibition of PDK1 in vitro), the IC50 is 100 to 1000 nM. Further, in test [1] (setting [2]), the 50% effective concentration (EC50) fell in the range of 1000 to 10000 nM.

On to `Cc1nc(/C=C2\C(=O)Nc3cc(/C=C/CNc4ncccc4C(=O)NCc4ccc(F)c(F)c4)ccc32)c[nH]1` [Example 15.8, N-(3,4-Difluoro-benzyl)-2-((E)-3-{3-[1-(2-methyl-1H-imidazol-4-yl)-meth-(Z)-ylidene]-2-oxo-2,3-dihydro-1H-indol-6-yl}-allylamino)-nicotinamide], for which, at PDK1 (setting [3]), the half-maximal inhibitory concentration (IC50) was below 100 nM. Further, in test [1] (setting [4]), the concentration giving a half-maximal response (EC50) is below 1000 nM.

In the case of `C[C@H](NC(=O)c1cc(C#N)cnc1NCc1ccc(-c2cnc3c(c2)OCCN3)cc1)c1ccc(F)cc1` [Example 137, (S)-5-cyano-2-(4-(3,4-dihydro-2H-pyrido [3,2-b][1,4]oxazin-7-yl)benzylamino)-N-(1-(4-fluorophenyl)ethyl)nicotinamide], the IC50 on PDK1 (inhibition of PDK1 in vitro) is below 100 nM. In addition, in test [1] (setting [2]), the EC50 lay in the range of 1000 to 10000 nM.

For the compound `C[C@H](NC(=O)c1cc(C#N)cnc1NCc1ccc(-c2c[nH]c3ncnc(N)c23)c(F)c1)c1ccc(F)cc1` [Example 100, (S)-2-(4-(4-amino-7H-pyrrolo[2,3-d]pyrimidin-5-yl)-3-fluorobenzylamino)-5-cyano-N-(1-(4-fluorophenyl)ethyl) nicotinamide], the 50% inhibitory concentration (IC50) on PDK1 (inhibition of PDK1 in vitro) is below 100 nM. Besides, in test [1] (inhibition of P308 Akt in PC-3 cells using MSD), the EC50 lay within 1000 to 10000 nM.

In the case of `CC[C@H](NC(=O)c1cccnc1NCc1ccc(-c2ccc3ncnc(N)c3c2)s1)c1ccc(F)cc1` [Example 3.43, (S)-2-((5-(4-aminoquinazolin-6-yl)thiophen-2-yl)methylamino)-N-(1-(4-fluorophenyl)propyl) nicotinamide (TFA salt)], the half-maximal inhibitory concentration (IC50) at PDK1 (setting [3]) was in the range of 100 to 1000 nM. Moreover, the 50% effective concentration (EC50) in test [1] (setting [4]) was in the range of 1000 to 10000 nM.

`Nc1ncnc2ccc(-c3ccc(CNc4ncccc4C(=O)NCc4cccc(F)c4F)s3)cc12` [Example 3.10, 2-({[5-(4-aminoquinazolin-6-yl)thiophen-2-yl]methyl}amino)-N-(2,3-difluorobenzyl)pyridine-3-carboxamide (TFA salt)] returned an IC50 against PDK1 (setting [3]) of 100 to 1000 nM. In addition, the half-maximal effective concentration (EC50) in test [1] (setting [4]) was 1000 to 10000 nM.

`C[C@H](NC(=O)c1cc(C#N)cnc1NCc1ccc(-c2cnc(N)c(C(=O)NCCN3CCOCC3)c2)cc1)c1ccc(F)cc1` [Example 202, (S)-2-amino-5-(4-((5-cyano-3-(1-(4-fluorophenyl)ethylcarbamoyl)pyridin-2-ylamino)methyl)phenyl)-N-(2-morpholinoethyl) nicotinamide] showed an IC50 against PDK1 (inhibition of PDK1 in vitro) below 100 nM. Further, the concentration giving a half-maximal response (EC50) in test [1] (setting [2]) lay in the range of 1000 to 10000 nM.

On PDK1 (setting [3]), `Nc1ncnc2ccc(-c3ccc(CNc4ncsc4C(=O)NCc4ccc(F)c(F)c4)s3)cc12` [Ex. 12.1] displayed a concentration for half-maximal inhibition (IC50) below 100 nM. Moreover, the concentration giving a half-maximal response (EC50) in test [1] (setting [4]) was above 10000 nM.

In turn, `C[C@H](NC(=O)c1nc(C#N)cnc1NCc1ccc(-c2cnc3[nH]c(=O)[nH]c3c2)cc1)c1ccc(F)c(F)c1` [Example 363, (S)-6-cyano-N-(1-(3,4-difluorophenyl)ethyl)-3-(4-(2-oxo-2,3-dihydro-1H-imidazo[4,5-b]pyridin-6-yl)benzylamino)-pyrazine-2-carboxamide] gave an IC50 against PDK1 (inhibition of PDK1 in vitro) below 100 nM. In addition, the concentration giving a half-maximal response (EC50) in test [1] (setting [2]) was below 1000 nM.

As to `Cn1cnc2cnc(-c3ccc(CNc4nc5c(cc4C(=O)NCc4ccc(F)c(F)c4)CCC5)s3)cc21` [Example 8.15.2, N-(3,4-difluorobenzyl)-2-({[5-(1-methyl-1H-imidazo[4,5-c]pyridin-6-yl)thiophen-2-yl]methyl}amino)-6,7-dihydro-5H-cyclopenta[b] pyridine-3-carboxamide], on PDK1 (setting [3]), the IC50 was above 5000 nM. Also, in test [1] (setting [4]), the half-maximal effective concentration (EC50) is above 10000 nM.

At PDK1 (inhibition of PDK1 in vitro), `N#Cc1cnc(NCc2ccc(-c3ccc(N)nc3)cc2)c(C(=O)NCc2cncc(F)c2)c1` [Example 310, 2-(4-(6-aminopyridin-3-yl)benzylamino)-5-cyano-N-((5-fluoropyridin-3-yl)methyl)nicotinamide] displayed an IC50 below 100 nM. Also, the EC50 in test [1] (setting [2]) is below 1000 nM.

Compound `C[C@H](NC(=O)c1cc(C#N)cnc1NCc1ccc(-c2cnc(N)c(O[C@@H]3CCNC3)n2)cc1)c1ccc(F)cc1` [Example 160, 2-{4-[5-Amino-6-((R)-pyrrolidin-3-yloxy)-pyrazin-2-yl]-benzylamino}-5-cyano-N-[(S)-1-(4-fluoro-phenyl)-ethyl]-nicotinamide] displayed a half-maximal inhibitory concentration (IC50) against PDK1 (inhibition of PDK1 in vitro) below 100 nM. In addition, the EC50 in test [1] (setting [2]) was below 1000 nM.

Compound `CC(Nc1ncc(C#N)nc1C(=O)N[C@@H](C)c1ccc(F)c(F)c1)c1ccc(-c2cnc3[nH]nc(N)c3c2)cc1` (stereo in doubt) [Example 350, 3-((R)-1-(4-(3-amino-1H-pyrazolo[3,4-b]pyridin-5-yl)phenyl)ethylamino)-6-cyano-N-((S)-1-(3,4-difluorophenyl)ethyl) pyrazine-2-carboxamide] yielded an IC50 at PDK1 (inhibition of PDK1 in vitro) above 5000 nM. Moreover, in test [1] (setting [2]), the 50% effective concentration (EC50) was above 10000 nM.

On PDK1 (setting [3]), `COc1cc2ncnc(-c3ccc(CNc4ncccc4C(=O)N[C@@H](C)c4ccc(F)cc4)s3)c2cc1OC` [Example 2.12, (S)-2-(((5-(6,7-dimethoxyquinazolin-4-yl)thiophen-2-yl)methyl)amino)-N-(1-(4-fluorophenyl)ethyl) nicotinamide] showed an IC50 above 5000 nM. In test [1] (setting [4]), the half-maximal effective concentration (EC50) was 1000 to 10000 nM.
